Results taken from publication PMC9661476 (Journal of Medicinal Chemistry, 2022).
In brackets after ≈: the same amount, converted by molar mass. Like-named read-outs stand apart in the source and are kept apart here.

Columns and labels:
[1] = Aqueous solubility measurement; format: physicochemical; conditions: for solubility: distilled or deionized water; for solubility, single assay: water
Protocol: Then, distilled or deionized water was added under gentle agitation until total dissolution. All the experiments were performed in triplicate.

plasmatic TTR = conditions: Phase IIa, FAP patients; cited from earlier work
[2] = assays 1-3 of triplicate, read-out: solubility, single assay
[3] = average of triplicate, read-out: solubility, average

O=C(c1ccc(C(F)(F)F)cc1)c1cc(O)c(O)c([N+](=O)[O-])c1 [Compound M-14, (3,4-Dihydroxy-5-nitrophenyl)-[4-(trifluoromethyl)phenyl]methanone]
melting point: 68 to 71 °C

O=C(c1cc(Cl)cc(Cl)c1)c1cc(O)c(O)c([N+](=O)[O-])c1 [Compound M-20, (3,5-Dichlorophenyl)-(3,4-dihydroxy-5-nitrophenyl)methanone]
melting point: 182 to 184 °C

O=C(c1cc(F)cc(F)c1)c1cc(O)c(O)c([N+](=O)[O-])c1 [Compound M-21, (3,5-Difluorophenyl)-(3,4-dihydroxy-5-nitrophenyl)methanone]
melting point: 135 to 137 °C

O=C(c1cc(O)cc(F)c1)c1cc(O)c(O)c([N+](=O)[O-])c1 [Compound M-23, (3,4-Dihydroxy-5-nitrophenyl)-(3-fluoro-5-hydroxyphenyl)methanone]
solubility [1, 2]: 44 µg/mL (≈ 150 µM) | solubility [1, 3]: 45 µg/mL (≈ 153 µM) | solubility, single assay ([1]; assays 1-3 of triplicate): 45 µg/mL (≈ 153 µM)

Cc1ccc(C(=O)c2cc(O)c(O)c([N+](=O)[O-])c2)cc1 [tolcapone, 3,4-dihydroxy-4′-methyl-5-nitrobenzophenone, reference compound]
Adverse events (plasmatic TTR): no adverse events were registered | solubility [1, 2]: 56 µg/mL (≈ 205 µM) | solubility [1, 3]: 56 µg/mL (≈ 205 µM) | solubility, single assay ([1]; assays 1-3 of triplicate): 55 µg/mL (≈ 201 µM)
